Measurements reported in ChEMBL document CHEMBL5550217, “Discovery of gem-Dimethyl-hydroxymethylpyridine Derivatives as Potent Non-nucleoside RSV Polymerase Inhibitors” (J Med Chem, 2024).
The source made the active and inactive calls. The rule behind the calls is not given here.

What was measured:
[1] = Inhibition of RSV RNA polymerase assessed as RNA products using […] template by SPA primer extension enzymatic assay; design: species or system Respiratory syncytial virus
[2] = Cytotoxicity against human HeLa cells measured after 3 days by ATPlite kit assay; type: toxicity, cell-based; settings: time 3 day
[3] = Metabolic stability in rat hepatocytes assessed as intrinsic clearance per 10^6 cells at 1 uM measured upto 180 mins by LC-MS/MS analysis; type: ADME, cell-based, Hepatocyte; settings: read-out: CLH
[4] = Clearance in Sprague-Dawley rat at 1.25 mg/kg, iv; type: ADME, organism-based; settings: in vivo
[5] = Drug recovery in bile duct cannulated rat urine measured for 48 hrs; type: ADME, tissue-based; settings: read-out: Drug recovery
[6] = Drug recovery in bile duct cannulated rat bile measured for 48 hrs; type: ADME, tissue-based; settings: read-out: Drug recovery
[7] = Metabolic stability in human hepatocytes assessed as intrinsic clearance per 10^6 cells at 1 uM measured upto 180 mins by LC-MS/MS analysis; type: ADME, cell-based, Hepatocyte; settings: read-out: CLH
[8] = test system: Respiratory syncytial virus; test: Antiviral activity against Respiratory syncytial virus (RSV)-A2-eGFP infected in human HeLa cells assessed as eGFP expression measured after 3 days by RSV Cell-based infection assay; type: functional, organism-based; settings: 72 h
[9] = Metabolic stability in human liver microsomes assessed as intrinsic clearance; type: ADME, Microsome; settings: read-out: CLH
[10] = test system: Respiratory syncytial virus; test: Antiviral activity against Respiratory syncytial virus (RSV) infected in human APC-126 cells assessed as replicon by measuring protein adjusted effective concentration in the presence of 40% human serum measured after 3 days by Renilla Glo assay; type: functional, organism-based; settings: 72 h
[11] = Metabolic stability in rat hepatocytes assessed as intrinsic clearance measured per 10^6 cells; type: ADME, cell-based, Hepatocyte; settings: read-out: CLH
[12] = test system: Respiratory syncytial virus; test: Antiviral activity against Respiratory syncytial virus (RSV) assessed as reduction in replicon RNA by Renilla Luciferase assay system; type: functional, organism-based; settings: human respiratory syncytial virus
[13] = Metabolic stability in human hepatocytes assessed as intrinsic clearance measured per 10^6 cells; type: ADME, cell-based, Hepatocyte; settings: read-out: CLH
[14] = Clearance in Balb/c mouse at 2.5 mg/kg, iv measured upto 24 hrs by LC-MS/MS analysis; type: ADME, organism-based; settings: in vivo
[15] = test system: Human orthopneumovirus; test: In vivo antiviral activity against Human respiratory syncytial virus (RSV) M37 infected in lamb model assessed as reduction in viral RNA level in lung at 0.25 to 4 mg/kg, po QD from 1 until 5 day post infection by qRT-PCR analysis; type: functional, organism-based; settings: dose 0.25-4 mg/kg
[16] = Metabolic stability in dog hepatocytes assessed as intrinsic clearance per 10^6 cells at 1 uM measured upto 180 mins by LC-MS/MS analysis; type: ADME, cell-based, Canis lupus familiaris, Hepatocyte; settings: read-out: CLH
[17] = test system: P-glycoprotein; test: Efflux ratio of permeability in dog MDCK-MDR1 cells assessed as P-glycoprotein mediated efflux; type: ADME, cell-based, Canis lupus familiaris
[18] = test system: Human orthopneumovirus; test: In vivo antiviral activity against Human respiratory syncytial virus (RSV) M37 infected in lamb model assessed as reduction in gross lesions in lung at 1 to 4 mg/kg, po QD from 1 until 5 day post infection; type: functional, organism-based; settings: dose 1-4 mg/kg
[19] = AUC (0 to last) in Sprague-Dawley rat at 5 mg/kg, po measured upto 24 hrs by LC-MS/MS analysis; type: ADME, organism-based; settings: in vivo
[20] = Half life in Sprague-Dawley rat at 1.25 mg/kg, iv measured upto 24 hrs by LC-MS/MS analysis; type: ADME, organism-based; settings: in vivo
[21] = Plasma protein binding in mouse assessed as free fraction; type: ADME, cell-free
[22] = Cmax in Beagle dog at 0.5 mg/kg, po measured upto 24 hrs by LC-MS/MS analysis; type: ADME, organism-based, Canis lupus familiaris; settings: in vivo
[23] = test system: Human orthopneumovirus; test: In vivo antiviral activity against Human respiratory syncytial virus (RSV) M37 infected in lamb model assessed as reduction in RSV cells in lung at 0.25 to 4 mg/kg, po QD from 1 until 5 day post infection by branched DNA technology (RNAscope); type: functional, organism-based; settings: dose 0.25-4 mg/kg
[24] = Apparent permeability across apical to basolateral side in dog MDCK-MDR1 cells at 5 uM measured after 60 mins; type: ADME, cell-based, Canis lupus familiaris
[25] = Metabolic stability in mouse hepatocytes assessed as intrinsic clearance per 10^6 cells at 1 uM measured upto 180 mins by LC-MS/MS analysis; type: ADME, cell-based, Hepatocyte; settings: read-out: CLH
[26] = AUC (0 to last) in Balb/c mouse at 10 mg/kg, po measured upto 24 hrs by LC-MS/MS analysis; type: ADME, organism-based; settings: in vivo
[27] = Volume of distribution at steady state in Balb/c mouse at 2.5 mg/kg, iv measured upto 24 hrs by LC-MS/MS analysis; type: ADME, organism-based; settings: in vivo, read-out: Vdss
[28] = Plasma protein binding in human assessed as free fraction; type: ADME, cell-free
[29] = test system: Human orthopneumovirus; test: In vivo antiviral activity against Human respiratory syncytial virus (RSV) M37 infected in lamb model assessed as reduction in microscopic lesions in lung at 1 to 4 mg/kg, po QD from 1 until 5 day post infection; type: functional, organism-based; settings: dose 1-4 mg/kg
[30] = Cmax in Balb/c mouse at 10 mg/kg, po measured upto 24 hrs by LC-MS/MS analysis; type: ADME, organism-based; settings: in vivo
[31] = test system: Human orthopneumovirus; test: In vivo antiviral activity against Human respiratory syncytial virus (RSV) M37 infected in lamb model assessed as reduction in viral titer in lung treated orally QD from 1 until 5 day post infection; type: functional, organism-based; settings: dose 0.4-4 mg/kg, route po
[32] = Inhibition of human RSV-A strain Memphis 37 RNA polymerase; design: species or system Human respiratory syncytial virus A
[33] = Ratio of drug concentration in Sprague-Dawley rat lung to plasma at 5 mg/kg, po measured upto 24 hrs by LC-MS/MS analysis; type: ADME, organism-based
[34] = Lipophilicity, logD of the compound; type: physicochemical; settings: octanol/water
[35] = AUC (0 to last) in Beagle dog at 0.5 mg/kg, po measured upto 24 hrs by LC-MS/MS analysis; type: ADME, organism-based, Canis lupus familiaris; settings: in vivo
[36] = test system: Human orthopneumovirus; test: In vivo antiviral activity against Human respiratory syncytial virus (RSV)-A2 intranasally infected in BALB/c mouse assessed as reduction in viral RNA level in lung treated orally QD 1 hr prior infection until 3 day post infection by qRT-PCR analysis; type: functional, organism-based; settings: dose 1-100 mg/kg, route po
[37] = Clearance in Sprague-Dawley rat at 1.25 mg/kg, iv measured upto 24 hrs by LC-MS/MS analysis; type: ADME, organism-based; settings: in vivo
[38] = Oral bioavailability in Sprague-Dawley rat at 5 mg/kg measured upto 24 hrs by LC-MS/MS analysis; type: ADME, organism-based; settings: in vivo
[39] = Cmax in Sprague-Dawley rat at 5 mg/kg, po measured upto 24 hrs by LC-MS/MS analysis; type: ADME, organism-based; settings: in vivo
[40] = Oral bioavailability in Beagle dog at 0.5 mg/kg measured upto 24 hrs by LC-MS/MS analysis; type: ADME, organism-based, Canis lupus familiaris; settings: in vivo
[41] = test system: Human orthopneumovirus; test: In vivo antiviral activity against Human respiratory syncytial virus (RSV) M37 infected in lamb model assessed as reduction in BALF peak viral titer in lung treated orally QD from 1 until 5 day post infection; type: functional, organism-based; settings: dose 0.4-4 mg/kg, route po
[42] = Plasma protein binding in rat assessed as free fraction; type: ADME, cell-free
[43] = Volume of distribution at steady state in Sprague-Dawley rat at 1.25 mg/kg, iv measured upto 24 hrs by LC-MS/MS analysis; type: ADME, organism-based; settings: in vivo, read-out: Vdss
[44] = Clearance in Beagle dog at 0.5 mg/kg, iv measured upto 24 hrs by LC-MS/MS analysis; type: ADME, organism-based, Canis lupus familiaris; settings: in vivo
[45] = test system: Human orthopneumovirus; test: In vivo antiviral activity against Human respiratory syncytial virus (RSV)-A2 intranasally infected in BALB/c mouse assessed as reduction in viral titer in lung treated orally QD 1 hr prior infection until 3 day post infection by plaque assay; type: functional, organism-based; settings: dose 1-100 mg/kg, route po
[46] = Volume of distribution at steady state in Beagle dog at 0.5 mg/kg, iv measured upto 24 hrs by LC-MS/MS analysis; type: ADME, organism-based, Canis lupus familiaris; settings: in vivo, read-out: Vdss
[47] = test system: Human orthopneumovirus; test: In vivo antiviral activity against Human respiratory syncytial virus (RSV) M37 infected in lamb model assessed as lung histopathology score at 1 to 4 mg/kg, po QD from 1 until 5 day post infection by H and E staining based assay; type: functional, organism-based; settings: dose 1-4 mg/kg
[48] = Oral bioavailability in Balb/c mouse at 10 mg/kg measured upto 24 hrs by LC-MS/MS analysis; type: ADME, organism-based; settings: in vivo
[49] = Half life in Beagle dog at 0.5 mg/kg, iv measured upto 24 hrs by LC-MS/MS analysis; type: ADME, organism-based, Canis lupus familiaris; settings: in vivo
[50] = Half life in Balb/c mouse at 2.5 mg/kg, iv measured upto 24 hrs by LC-MS/MS analysis; type: ADME, organism-based; settings: in vivo
[51] = Plasma protein binding in dog assessed as free fraction; type: ADME, cell-free, Canis lupus familiaris

COc1cc(C(=O)NC[C@](O)(c2cc3c(c(-c4ccc(F)cc4)n2)OC[C@]3(C)NS(C)(=O)=O)C(F)(F)F)cn2cc(CO)nc12
IC50 [1]: 0.0034 µM
CC50 at 72 h [2]: > 90.9 µM
hepatocyte CLint at 1 µM [3]: 20 µL/min/1e6 cells
clearance [4]: 3.07 L/h/kg
dose excreted at 48 h [5]: 6%
dose excreted at 48 h [6]: 77%
hepatocyte CLint at 1 µM [7]: 4.3 µL/min/1e6 cells
EC50 [8]: 0.046 µM

COc1cc(C(=O)NC[C@](O)(c2cc(C(C)(C)O)c(F)c(-c3ccc(F)cc3)n2)C(F)(F)F)cc2cc(C)c(C)nc12
IC50 [1]: 0.00096 µM
CC50 at 72 h [2]: 18.4 µM
microsomal CLint [9]: > 347 µL/min/mg
EC50 [10]: 0.061 µM
EC50 [8]: 0.0086 µM

COc1cc(C(=O)NC[C@](O)(c2cc3c(c(-c4ccc(F)cc4)n2)OC[C@]3(C)N)C(F)(F)F)ccc1OC[C@@H](C)O
IC50 [1]: 0.0051 µM
CC50 at 72 h [2]: 58.4 µM
hepatocyte CLint at 1 µM [3]: 54 µL/min/1e6 cells
clearance [4]: 5.34 L/h/kg
hepatocyte CLint [11]: 54 µL/min/1e6 cells
EC50 [12]: 0.01 µM
hepatocyte CLint at 1 µM [7]: 31 µL/min/1e6 cells
EC50 [8]: 0.01 µM
hepatocyte CLint [13]: 31 µL/min/1e6 cells

COc1cc(C(=O)NC[C@](O)(c2cc(C(C)(C)O)c(F)c(-c3ccc(F)cc3)n2)C(F)(F)F)cc2cc(C)nnc12
clearance [14]: 0.636 L/h/kg
Activity [15]: Active
hepatocyte CLint at 1 µM [16]: 6.4 µL/min/1e6 cells
IC50 [1]: 0.00029 µM
efflux ratio [17]: > 93
Activity [18]: Active
AUC(0-t) at 24 h [19]: 2.1 µg·h/mL
CC50 at 72 h [2]: 27.7 µM
hepatocyte CLint at 1 µM [3]: 27 µL/min/1e6 cells
half-life [20]: 3.15 h
Fu [21]: 0.45%
Cmax [22]: 0.249 µg/mL
Activity [23]: Active
Papp A→B at 1 h, 5 µM [24]: 98 nm/s
hepatocyte CLint at 1 µM [25]: 6.2 µL/min/1e6 cells
AUC(0-t) at 24 h [26]: 9.58 µg·h/mL
Vd [27]: 1.68 L/kg
Fu [28]: 0.66%
Activity [29]: Active
Cmax [30]: 1.73 µg/mL
Activity [31]: Dose-Dependent Effect
EC50 [10]: 0.013 µM
IC50 [32]: 0.0003 µM
Kp at 24 h [33]: 1
logD [34]: 3.55
AUC(0-t) at 24 h [35]: 1.2 µg·h/mL
Activity [36]: Dose-Dependent Effect
clearance [37]: 0.482 L/h/kg
hepatocyte CLint at 1 µM [7]: < 1.9 µL/min/1e6 cells
bioavailability [38]: 20%
Cmax [39]: 0.401 µg/mL
EC50 [8]: 0.00082 µM
bioavailability [40]: 81%
Activity [41]: Dose-Dependent Effect
Fu [42]: 0.13%
Vd [43]: 1.04 L/kg
clearance [44]: 0.337 L/h/kg
Activity [45]: Dose-Dependent Effect
Vd [46]: 1.49 L/kg
Activity [47]: Active
bioavailability [48]: 61%
half-life [49]: 4.25 h
half-life [50]: 1.95 h
Fu [51]: 0.87%
